From ChEMBL document CHEMBL5726287, “Biaryl acetamide compounds and methods of use thereof” (2017)

Each compound was assayed against Mast/stem cell growth factor receptor Kit (Homo sapiens, UniProt P10721) (assay: Competition Binding Assay: Competition binding assays used herein were developed, validated and performed as described in Fabian et al., Nature Biotechnology 2005, 23, 329-336. Kinases were produced as fusions to T7 phage (See, Fabian et al. or WO04/015142) or alternatively, the kinases were expressed in HEK-293 cells and subsequently tagged with DNA for PCR detection (See, WO08/005,310). […] The liganded beads were blocked with excess biotin and washed with blocking buffer (SeaBlock (Pierce), 1% BSA, 0.05% Tween 20, 1 mM DTT) to remove unbound ligand and to reduce non-specific binding. […] Test compounds were prepared as 100× stocks in DMSO and diluted into the aqueous environment. Kds were determined using an eleven point threefold serial dilutions. DMSO or control compounds were was added to control assays lacking a test compound.).
Mast/stem cell growth factor receptor Kit, sequence (P10721 whole entry, the tested form may be a part): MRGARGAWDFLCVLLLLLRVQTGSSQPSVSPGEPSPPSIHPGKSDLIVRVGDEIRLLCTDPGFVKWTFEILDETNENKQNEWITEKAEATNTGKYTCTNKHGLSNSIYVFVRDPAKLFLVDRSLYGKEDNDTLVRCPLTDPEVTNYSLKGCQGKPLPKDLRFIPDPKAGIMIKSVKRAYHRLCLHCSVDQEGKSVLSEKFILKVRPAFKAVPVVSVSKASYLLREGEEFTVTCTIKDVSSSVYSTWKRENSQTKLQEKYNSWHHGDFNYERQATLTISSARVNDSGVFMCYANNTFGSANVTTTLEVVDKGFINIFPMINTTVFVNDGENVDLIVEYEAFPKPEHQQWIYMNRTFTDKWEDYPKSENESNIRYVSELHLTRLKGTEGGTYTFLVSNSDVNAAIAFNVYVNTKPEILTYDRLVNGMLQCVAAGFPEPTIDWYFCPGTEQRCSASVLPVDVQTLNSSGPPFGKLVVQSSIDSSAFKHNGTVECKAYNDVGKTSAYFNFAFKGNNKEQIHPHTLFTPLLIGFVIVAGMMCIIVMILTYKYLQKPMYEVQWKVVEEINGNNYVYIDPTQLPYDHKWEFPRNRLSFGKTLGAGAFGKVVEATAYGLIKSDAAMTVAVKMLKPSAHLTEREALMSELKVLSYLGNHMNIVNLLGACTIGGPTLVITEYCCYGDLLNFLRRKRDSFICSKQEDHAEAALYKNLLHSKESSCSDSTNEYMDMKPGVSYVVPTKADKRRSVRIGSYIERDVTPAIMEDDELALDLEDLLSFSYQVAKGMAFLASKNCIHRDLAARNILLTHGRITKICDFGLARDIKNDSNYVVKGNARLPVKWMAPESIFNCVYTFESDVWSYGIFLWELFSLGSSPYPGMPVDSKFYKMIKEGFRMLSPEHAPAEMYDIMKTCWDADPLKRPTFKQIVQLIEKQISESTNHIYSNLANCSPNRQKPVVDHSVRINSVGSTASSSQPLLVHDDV
Format: cell-based

Kd, < 5 nM:
COc1cc2ncc(-c3ccc(CC(=O)Nc4cc(C5(C(F)(F)F)CC5)on4)cc3)nc2cc1OC
COc1cc2nc(-c3ccc(CC(=O)Nc4cc(C5(C)CC5)no4)c(F)c3)cnc2cc1OCCN1CCOCC1
COc1cc2nc(-c3ccc(CC(=O)Nc4cc(C(C)(C)C(F)(F)F)nn4C)c(F)c3)cnc2cc1OCCN1CCOCC1
